Source: PubChem BioAssay AID1963420 (Molecular Pharmacology Branch, DTP, NCI, 2024)
Blank lines part the entries; values can stand above or below the molecule they belong to.

Test system: 494315-158-R-J1-PDC complex spheroid growth, percent test/control
Assay: Anticancer human tumor 494315-158-R-J1-PDC patient-derived soft tissue sarcoma cell line growth inhibition [Asc]
Settings: for IC50: curve of first compound; for viability, T/C: stronger effect = lower value
In short: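 Tumor cells were grown as complex spheroids with human endothelial cells (HUVEC) and human mesenchymal stem cells as stroma. Agents were tested alone and in combination, in half-log steps down from the clinical Cmax, or from 10 microM where Cmax was unknown.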

[1] = second compound 0.1 µM, first compound 0.0316 µM
[2] = second compound 0.1 µM, first compound 0.1 µM
[3] = second compound 0.1 µM, first compound 0.316 µM
[4] = second compound 0.1 µM, first compound 1 µM
[5] = second compound 0.1 µM, first compound 3.16 µM
[6] = second compound 0.1 µM, first compound 10 µM
[7] = second compound 0.316 µM, first compound 0.0316 µM
[8] = second compound 0.316 µM, first compound 0.1 µM
[9] = second compound 0.316 µM, first compound 0.316 µM
[10] = second compound 0.316 µM, first compound 1 µM
[11] = second compound 0.316 µM, first compound 3.16 µM
[12] = second compound 0.316 µM, first compound 10 µM
[13] = second compound 1 µM, first compound 0.0316 µM
[14] = second compound 1 µM, first compound 0.1 µM
[15] = second compound 1 µM, first compound 0.316 µM
[16] = second compound 1 µM, first compound 1 µM
[17] = second compound 1 µM, first compound 3.16 µM
[18] = second compound 1 µM, first compound 10 µM
[19] = second compound 3.16 µM, first compound 0.0316 µM
[20] = second compound 3.16 µM, first compound 0.1 µM
[21] = second compound 10 µM, first compound 0.0316 µM
[22] = second compound 10 µM, first compound 0.1 µM
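Note: compound exposure lasted seven days after spheroids formed for three days.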

- IC50 (second compound 0.03 µM): > 100 nM
- IC50 (second compound 0.0949 µM): > 100 nM
- IC50 (second compound 0.3 µM): > 100 nM
- IC50 (second compound 0.949 µM): > 100 nM
- IC50 (second compound 3 µM): > 100 nM
Structure (SMILES): NC1CCC(NC2CC2c2ccccc2)CC1 (stereo not given) + CCN1C(C(=O)NC23CCC(C(=O)O)(CC2)CC3)C(c2cccc(Cl)c2F)C2(C(=O)Nc3cc(Cl)ccc32)C12CCCCC2
- viability, T/C (second compound 0.03 µM, first compound 0.000316 µM): 95.8%
- viability, T/C (second compound 0.03 µM, first compound 0.001 µM): 95.3%
- viability, T/C (second compound 0.03 µM, first compound 0.00316 µM): 89.8%
- viability, T/C (second compound 0.03 µM, first compound 0.01 µM): 85.2%
- viability, T/C (second compound 0.03 µM, first compound 0.0316 µM): 112%
- viability, T/C (second compound 0.03 µM, first compound 0.1 µM): 97.9%
- viability, T/C (second compound 0.0949 µM, first compound 0.000316 µM): 99.7%
- viability, T/C (second compound 0.0949 µM, first compound 0.001 µM): 93.4%
- viability, T/C (second compound 0.0949 µM, first compound 0.00316 µM): 99%
- viability, T/C (second compound 0.0949 µM, first compound 0.01 µM): 104%
- viability, T/C (second compound 0.0949 µM, first compound 0.0316 µM): 92.5%
- viability, T/C (second compound 0.0949 µM, first compound 0.1 µM): 95%
- viability, T/C (second compound 0.3 µM, first compound 0.000316 µM): 96.6%
- viability, T/C (second compound 0.3 µM, first compound 0.001 µM): 91.3%
- viability, T/C (second compound 0.3 µM, first compound 0.00316 µM): 94.7%
- viability, T/C (second compound 0.3 µM, first compound 0.01 µM): 88.7%
- viability, T/C (second compound 0.3 µM, first compound 0.0316 µM): 96.5%
- viability, T/C (second compound 0.3 µM, first compound 0.1 µM): 82.2%
- viability, T/C (second compound 0.949 µM, first compound 0.000316 µM): 91%
- viability, T/C (second compound 0.949 µM, first compound 0.001 µM): 91.5%
- viability, T/C (second compound 0.949 µM, first compound 0.00316 µM): 85.7%
- viability, T/C (second compound 0.949 µM, first compound 0.01 µM): 87.5%
- viability, T/C (second compound 0.949 µM, first compound 0.0316 µM): 90.9%
- viability, T/C (second compound 0.949 µM, first compound 0.1 µM): 92.1%
- viability, T/C (second compound 3 µM, first compound 0.000316 µM): 98.3%
- viability, T/C (second compound 3 µM, first compound 0.001 µM): 98%
- viability, T/C (second compound 3 µM, first compound 0.00316 µM): 93.7%
- viability, T/C (second compound 3 µM, first compound 0.01 µM): 91%
- viability, T/C (second compound 3 µM, first compound 0.0316 µM): 83.6%
- viability, T/C (second compound 3 µM, first compound 0.1 µM): 96.6%

- IC50 (second compound 0.01 µM): 1560 nM
- IC50 (second compound 0.0316 µM): 513 nM
- IC50 (second compound 0.1 µM): 1020 nM
- IC50 (second compound 0.316 µM): < 31.6 nM
- IC50 (second compound 1 µM): < 31.6 nM
Structure (SMILES): C=C(F)C(=O)N1CCN(c2nc(OCC3CCCN3C)nc3c2CCN(c2cccc4cccc(Cl)c24)C3)CC1CC#N (stereo not given) + CNC(C)C(=O)NC1CN(S(=O)(=O)c2cccc(S(=O)(=O)N3CCC4CCC(C(=O)NC(c5ccccc5)c5ccccc5)N4C(=O)C(NC(=O)C(C)NC)C3)c2)CCC2CCC(C(=O)NC(c3ccccc3)c3ccccc3)N2C1=O
- viability, T/C (second compound 0.01 µM, first compound 0.0316 µM): 68.7%
- viability, T/C (second compound 0.01 µM, first compound 0.1 µM): 70.6%
- viability, T/C (second compound 0.01 µM, first compound 0.316 µM): 61.5%
- viability, T/C (second compound 0.01 µM, first compound 1 µM): 62.9%
- viability, T/C (second compound 0.01 µM, first compound 3.16 µM): 30.8%
- viability, T/C (second compound 0.01 µM, first compound 10 µM): 0.15%
- viability, T/C (second compound 0.0316 µM, first compound 0.0316 µM): 51.8%
- viability, T/C (second compound 0.0316 µM, first compound 0.1 µM): 56.5%
- viability, T/C (second compound 0.0316 µM, first compound 0.316 µM): 46.2%
- viability, T/C (second compound 0.0316 µM, first compound 1 µM): 48.5%
- viability, T/C (second compound 0.0316 µM, first compound 3.16 µM): 20.6%
- viability, T/C (second compound 0.0316 µM, first compound 10 µM): 0.13%
- viability, T/C [1]: 50.7%
- viability, T/C [2]: 48%
- viability, T/C [3]: 52.3%
- viability, T/C [4]: 51.7%
- viability, T/C [5]: 18.9%
- viability, T/C [6]: 0.11%
- viability, T/C [7]: 44.9%
- viability, T/C [8]: 43.4%
- viability, T/C [9]: 38.8%
- viability, T/C [10]: 45.7%
- viability, T/C [11]: 12.8%
- viability, T/C [12]: 0.11%
- viability, T/C [13]: 34.3%
- viability, T/C [14]: 39.9%
- viability, T/C [15]: 36.7%
- viability, T/C [16]: 39.8%
- viability, T/C [17]: 8.22%
- viability, T/C [18]: 0.18%

- IC50 (second compound 0.1 µM): 1810 nM
- IC50 (second compound 0.316 µM): 1340 nM
- IC50 (second compound 1 µM): 1370 nM
- IC50 (second compound 3.16 µM): 367 nM
- IC50 (second compound 10 µM): 1470 nM
Structure (SMILES): C=C(F)C(=O)N1CCN(c2nc(OCC3CCCN3C)nc3c2CCN(c2cccc4cccc(Cl)c24)C3)CC1CC#N (stereo not given) + Cc1c(S(C)(=O)=O)c(-c2cc(F)cc(N3CCN(c4ccc(NS(=O)(=O)c5ccc(NC(CCN6CCC(C(=O)OCCCP(=O)(O)O)CC6)CSc6ccccc6)c(S(=O)(=O)C(F)(F)F)c5)cc4)CC3)c2)c(-c2ccc(Cl)cc2)n1C(C)C
- viability, T/C [1]: 77.7%
- viability, T/C [2]: 79.6%
- viability, T/C [3]: 71.8%
- viability, T/C [4]: 73.7%
- viability, T/C [5]: 27.8%
- viability, T/C [6]: 0.16%
- viability, T/C [7]: 73.5%
- viability, T/C [8]: 72.7%
- viability, T/C [9]: 75.1%
- viability, T/C [10]: 57%
- viability, T/C [11]: 25.6%
- viability, T/C [12]: 0.14%
- viability, T/C [13]: 64.3%
- viability, T/C [14]: 67%
- viability, T/C [15]: 65.5%
- viability, T/C [16]: 61.1%
- viability, T/C [17]: 20.6%
- viability, T/C [18]: 0.12%
- viability, T/C [19]: 55.9%
- viability, T/C [20]: 53.4%
- viability, T/C (second compound 3.16 µM, first compound 0.316 µM): 47.8%
- viability, T/C (second compound 3.16 µM, first compound 1 µM): 41.1%
- viability, T/C (second compound 3.16 µM, first compound 3.16 µM): 11.1%
- viability, T/C (second compound 3.16 µM, first compound 10 µM): 0.15%
- viability, T/C [21]: 75.8%
- viability, T/C [22]: 78.5%
- viability, T/C (second compound 10 µM, first compound 0.316 µM): 73.5%
- viability, T/C (second compound 10 µM, first compound 1 µM): 65.3%
- viability, T/C (second compound 10 µM, first compound 3.16 µM): 20%
- viability, T/C (second compound 10 µM, first compound 10 µM): 0.24%

- IC50 (second compound 0.1 µM): 26.8 nM
- IC50 (second compound 0.316 µM): 18.1 nM
- IC50 (second compound 1 µM): 4.34 nM
- IC50 (second compound 3.16 µM): 1.3 nM
- IC50 (second compound 10 µM): 4.61 nM
Structure (SMILES): Cn1ncnc1[C@H]1c2n[nH]c(=O)c3cc(F)cc(c23)N[C@@H]1c1ccc(F)cc1 + Cc1c(S(C)(=O)=O)c(-c2cc(F)cc(N3CCN(c4ccc(NS(=O)(=O)c5ccc(NC(CCN6CCC(C(=O)OCCCP(=O)(O)O)CC6)CSc6ccccc6)c(S(=O)(=O)C(F)(F)F)c5)cc4)CC3)c2)c(-c2ccc(Cl)cc2)n1C(C)C
- viability, T/C (second compound 0.1 µM, first compound 0.000316 µM): 83.2%
- viability, T/C (second compound 0.1 µM, first compound 0.001 µM): 76%
- viability, T/C (second compound 0.1 µM, first compound 0.00316 µM): 62.2%
- viability, T/C (second compound 0.1 µM, first compound 0.01 µM): 56.5%
- viability, T/C [1]: 48.7%
- viability, T/C [2]: 46.1%
- viability, T/C (second compound 0.316 µM, first compound 0.000316 µM): 74.6%
- viability, T/C (second compound 0.316 µM, first compound 0.001 µM): 63.1%
- viability, T/C (second compound 0.316 µM, first compound 0.00316 µM): 63.9%
- viability, T/C (second compound 0.316 µM, first compound 0.01 µM): 44.6%
- viability, T/C [7]: 50.9%
- viability, T/C [8]: 48.9%
- viability, T/C (second compound 1 µM, first compound 0.000316 µM): 56.4%
- viability, T/C (second compound 1 µM, first compound 0.001 µM): 59%
- viability, T/C (second compound 1 µM, first compound 0.00316 µM): 52%
- viability, T/C (second compound 1 µM, first compound 0.01 µM): 43%
- viability, T/C [13]: 38.9%
- viability, T/C [14]: 35%
- viability, T/C (second compound 3.16 µM, first compound 0.000316 µM): 56.1%
- viability, T/C (second compound 3.16 µM, first compound 0.001 µM): 53.5%
- viability, T/C (second compound 3.16 µM, first compound 0.00316 µM): 40.3%
- viability, T/C (second compound 3.16 µM, first compound 0.01 µM): 31.6%
- viability, T/C [19]: 32.9%
- viability, T/C [20]: 25.4%
- viability, T/C (second compound 10 µM, first compound 0.000316 µM): 66.1%
- viability, T/C (second compound 10 µM, first compound 0.001 µM): 71.2%
- viability, T/C (second compound 10 µM, first compound 0.00316 µM): 53.3%
- viability, T/C (second compound 10 µM, first compound 0.01 µM): 45.2%
- viability, T/C [21]: 38.4%
- viability, T/C [22]: 45.7%
